In patent US20140179800A1, “Inhibition of the Survival of Bladder Cancer by Cyclohexenone Compounds from Antrodia Camphorata” (Golden Biotechnology Corporation, priority 2009, published 2014) one finds IC50 data, which are given here for one molecule.

In this assay the test system is bladder cancer cell line TSGH-8301. In words: In vitro survival assay (MTT) for anti-bladder cancer effects. Particulars: TSGH-8301 human bladder carcinoma cells, 48 hours, survival rate. It is filed as cell-based. Here is the method: Inhibiting effects of bladder cancer cells by cyclohexenone compounds of Antrodia camphorata from example 1 were assessed according to the anticancer-drug screening model of National Cancer Institute (NCI). The compound 4-hydroxy-2,3-dimethoxy-6-methyl-5-(3,7,11-trimethyl-dodeca-2,6,10-trienyl)-cyclohex-2-enone from example 1 was added into the culture media of bladder cancer cell line TSGH-8301 to determine the survival rates. Survival of cell was analyzed using MTT assay. TSGH-8301 cell line was a human bladder carcinoma cell line.
MTT assay is commonly used to analyze cell proliferation, survival rate of viable cells and cytotoxicity. MTT (3[4,5-dimethylthiazol-2-yl]-2,5-diphenyltetrazolium bromide) is a yellow dye which can be converted to water-insoluble purple formazan on the reductive cleavage of its tetrazolium ring by the succinate tetrazolium reductase in mitochondria of cells. The amount of formazan produced is used to detect the number of viable cells and calculate the survival rates.
The TSGH-8301 cells were cultivated in DMEM medium supplemented with 10% fetal bovine serum, 100 U/ml of Penicillin and 100 μg/ml of Streptomycin at 37° C., 5% CO2 for 24 hours. Proliferated cells were washed once with PBS, treated with 1× trypsin-EDTA, and centrifuged at 1200 rpm for 5 min. […] The absorbances were measured at 570 nm with an ELISA Reader to determine the survival rates.

In general, IC50 refers to the concentration that inhibits the measured activity by half. As to `COC1=C(OC)C(O)C(C/C=C(\C)CC/C=C(\C)CCC=C(C)C)C(C)C1=O` (stereo not shown) [formula 2, 4-hydroxy-2,3-dimethoxy-6-methyl-5-(3,7,11-trimethyl-dodeca-2,6,10-trienyl)-cyclohex-2-enone], the IC50 was 1.05 µg/mL.
